Test results from PMC8958510 (Journal of Medicinal Chemistry, 2022).
In brackets after ≈: the same amount, converted by molar mass.

How the values were obtained:
[1] = biological target: T1, recombinant human AChE (Homo sapiens, UniProt P22303); assay type: biochemical; details: recombinant human AChE; mean ± SEM; read-out: hAChE IC50
T1 construct: purchased Sigma-Aldrich, Milan, Italy
Description: (§1) Human and mouse acetylcholinesterase and human butyrylcholinesterase inhibition
(§2) assay. The inhibitory activity of the target compounds toward recombinant human AChE
(§3) (Sigma-Aldrich, Milan, Italy), recombinant mouse AChE (Bio-Techne, Milan, Italy) and
(§4) human serum BChE (Sigma-Aldrich, Milan, Italy) was assessed by Ellman’s method,8 using
(§5) Stock solutions of the AChEs were prepared by
(§6) dissolving enzyme lyophilized powder (hAChE) or diluting the enzyme commercial solution
(§7) (mAChE) in 0.1 M potassium phosphate (pH 8.0) containing 0.1% Triton X-100, whereas the
(§8) stock solution of hBChE was prepared in 0.1% aq. gelatin and the stock solutions of the
(§9) compounds to be tested were made in MeOH (2-4 mM). The assay solution consisted of 0.02
(§10) unit mL‒1 of the enzyme, 340 M 5,5’-dithiobis(2-nitrobenzoic acid), and 550 M of the
(§11) substrate acetylthiocholine iodide (for AChE assay) or butyrylthiocholine iodide (for BChE
(§12) assay) in 0.1 M potassium phosphate (pH 8.0). Blank solutions containing all components
(§13) except the enzymes were prepared to account for the non-enzymatic hydrolysis of the
(§14) Prior the addition of the substrate, the assay solutions were incubated at 37 °C for 20 min.
(§15) After the addition of the substrate, cuvettes were rapidly transferred into a Jasco V-530
(§16) double beam spectrophotometer equipped with thermostated cuvette holders (37 °C), in order
(§17) for 240 s. For each tested compound, five increasing concentrations were assayed in order to
(§18) achieve inhibition percentages of 20‒80%. Each concentration was assayed in triplicate. IC50
(§19) values were calculated from the inhibition plot (% inhibition vs log[inhibitor]) and are
(§20) expressed as mean ± SEM. Each IC50 value is the average of at least two experiments, each

[2] = biological target: T2, human serum BChE (Homo sapiens, UniProt P06276); assay type: biochemical
T2 construct: human serum BChE (Sigma-Aldrich, Milan, Italy) was assessed by Ellman’s method; purchased Sigma-Aldrich, Milan, Italy; host or cells: human serum
Description: as §1, §2, §3, §4, §5, §6, §7, §8, §9, §10, §11, §12, §13, §14, §15, §16, §17, §18, §19, §20

[3] = test system: SH-SY5Y cells; assay: Cytotoxicity in SH-SY5Y cells, propidium iodide stain; assay type: cell-based, human
Description: Cytotoxicity in SH-SY5Y cells. The cytotoxicity of the target compounds was evaluated in
Minimum Essential Medium / Ham’s-F12 (1:1, v/v) medium (Biowest), supplemented with
non-essential amino acids, 10% fetal bovine serum, 1 mM glutamine and 50 µg mL‒1
gentamycin (all reagents from Gibco, Thermo Fisher Scientific). For the experiments, cells
were seeded at 3 × 10^5 cells mL‒1 (100 µL per well) in 96-well plates (Nunc). After 24 h, the
test compounds were added concentrated from stock solutions in DMSO and culture medium
to triplicate wells to obtain the final different concentrations up to 100 µM in 0.1% DMSO.
Compounds were incubated for further 24 h. At termination, cytotoxicity was analyzed by the
propidium iodide (PI) fluorescence stain assay. All compounds were tested in three
independent experiments using different cell passages. The PI assay measures cell death. PI
enters into the cells with damaged membranes and greatly increases the fluorescence upon
binding to DNA. PI reagent (Molecular Probes) at the final concentration of 7.5 µg mL‒1 was
added to the cells and incubated for 1 h. The resulting fluorescence was measured by a Flx-
death induced by the compounds was calculated from to the fluorescence of treated cells (Ft)
relative to that of control cells (Fmin) and cells incubated with Triton X100 (Fmax) as the 0%
and 100% cell death, respectively [% = ((Ft-Fmin)/(Fmax-Fmin)) × 100]. All compounds
were tested in three independent experiments using different cell passages. LC50 values were
calculated for each experiment and the results are expressed as mean ± SD.

[4] = test system: SAMP8 mice; assay: Novel object recognition test (NORT) in SAMP8 mice; assay type: in vivo, mouse; details: 2 mg kg^–1 day^–1 oral, 4 weeks, vs vehicle-treated
Description: In Vivo Proof-of-Concept of the Dual sEH / AChE Inhibitor […] in SAMP8 Mice Animals and treatment. The senescence-accelerated mouse-prone 8 (SAMP8) is an accelerated aging model established through phenotypic selection from AKR/J mice by […]
abnormal APP and β-amyloid processing and tau pathology, among others. Likewise, SAMP8 […]
and oxidative stress markers are present at early ages and during adultness.15 In this work, 5-month-old male SAMP8 mice were used to perform behavioral and molecular analyses.
Animals were randomly divided into SAMP8 control (n=8) and SAMP8 treated with 12c […]
(n=8, 2 mg kg‒1 day‒1). The animals had free access to food and water and were kept under standard temperature conditions (22 ± 2 °C) and 12-h/12-h light/dark cycles (300 lux/0 lux).
Compound 12c was dissolved in 1.8% (2-hydroxypropyl)-β-cyclodextrin (Sigma-Aldrich, St.
Louis, MO) and administered through drinking water for 4 weeks (Figure S6 of the Supporting Information). Control groups received water plus 1.8% (2-hydroxypropyl)-β-cyclodextrin during the treatment period. […]
had been replaced by a novel one. The behavior was recorded, and the time that the mice spent exploring the new object (TN) and the old one (TO) were measured manually. […]
The discrimination index (DI) was calculated as (TN‒TO)/(TN+TO). […]

[5] = biological target: T3, recombinant mouse sEH (Mus musculus, UniProt P34914); details: read-out: msEH IC50, average of three replicates
T3 sequence (P34914 1-554): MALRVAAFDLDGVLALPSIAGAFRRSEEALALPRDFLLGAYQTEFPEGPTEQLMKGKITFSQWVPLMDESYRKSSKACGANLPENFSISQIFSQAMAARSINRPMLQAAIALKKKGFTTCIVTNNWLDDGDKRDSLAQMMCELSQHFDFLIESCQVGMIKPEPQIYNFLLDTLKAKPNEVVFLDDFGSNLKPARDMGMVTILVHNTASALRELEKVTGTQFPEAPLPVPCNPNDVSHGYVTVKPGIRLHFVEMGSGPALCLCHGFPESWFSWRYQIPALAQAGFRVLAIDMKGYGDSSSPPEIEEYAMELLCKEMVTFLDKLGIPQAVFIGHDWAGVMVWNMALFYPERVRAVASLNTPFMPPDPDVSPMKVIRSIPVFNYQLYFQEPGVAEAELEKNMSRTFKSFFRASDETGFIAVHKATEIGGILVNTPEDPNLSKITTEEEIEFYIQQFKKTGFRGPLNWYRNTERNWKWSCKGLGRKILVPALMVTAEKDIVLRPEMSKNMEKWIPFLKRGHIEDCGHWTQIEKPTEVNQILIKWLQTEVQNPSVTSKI
Description: Human and mouse soluble epoxide hydrolase inhibition assay. The inhibitory activity of
the target compounds toward human and mouse sEH was determined by a fluorescence-based
assay, using purified recombinant human or mouse sEH proteins and CMNPC as a fluorescent
substrate.6 The enzymes were incubated at 30 °C with the inhibitors ([I]final = 0.4-100,000
nM) for 5 min in 100 mM sodium phosphate buffer (200 µL, pH 7.4) containing 0.1 mg mL‒1
of BSA and 1% of DMSO. The substrate (CMNPC) was then added ([S]final = 5 µM). Activity
was assessed by measuring the appearance of the fluorescent 6-methoxynaphthaldehyde
(Molecular Devices). Results were obtained by regression analysis from a linear region of the
curve and are given as IC50 values, i.e., the concentration of the compound that reduces the
sEH activity by 50%. All measurements were performed in triplicate and the mean is

[6] = biological target: PAS of Electrophorus electricus AChE (EeAChE) (Electrophorus electricus, UniProt O42275); assay: Propidium displacement studies (PAS of AChE); assay type: binding; set-up: purchased Sigma-Aldrich type VI-S; details: mean ± SD of two independent experiments, read-out: KD (displacement of propidium from PAS)
Description: Propidium Displacement Studies.
electricus AChE (EeAChE) (type VI-S, Sigma-Aldrich) was determined using the PAS-
specific ligand propidium iodide (P) (Sigma-Aldrich), following a described procedure.9
Complexation of propidium iodide and AChE leads to a shift in the excitation wavelength.9
Fluorescence intensity was monitored with a Jasco 6200 spectrofluorometer (Jasco Europe,
Italy) using a 0.5 mL quartz cuvette at rt. EeAChE (2 μM) was first incubated with 8 mM
propidium iodide in 1 mM Tris-HCl, pH 8.0 at rt.
prepared in MeOH. In the back titration experiments of the propidium‒AChE complex by
fluorescence emission was determined. KD values were obtained after processing the raw data
values are expressed as mean ± standard deviation (SD) of two independent experiments.

[7] = PAMPA-BBB assay for brain permeability
Description: PAMPA-BBB assay for brain permeability. The brain permeability (Pe) of the target
compounds was assessed by an in vitro parallel artificial membrane permeability assay for
blood‒brain barrier penetration (PAMPA-BBB assay),12 which uses a lipid extract of porcine
brain membrane as a BBB model. The assay was validated by comparing experimental and
reported Pe values of a set of fourteen commercial drugs (Table S2 of the Supporting
On the basis of this equation and the limits established by Di et al. for BBB
independent experiments, each performed in triplicate, were carried out for each compound.

[8] = Kinetic aqueous solubility screen (light scattering); details: 1% DMSO / 99% PBS
Description: Aqueous solubility screen. The kinetic aqueous solubility of the target compounds was
determined at the Innopharma Drug Screening and Pharmacogenomics Platform (Santiago de
Compostela, Spain). Ten mM stock solutions of the tested compounds were serially diluted,
NEPHELOstar Plus reader (BMG LABTECH). The results were adjusted to a segmented
linear regression to obtain the maximum concentration in which the compounds were soluble.

T2 sequence (P06276 29-602): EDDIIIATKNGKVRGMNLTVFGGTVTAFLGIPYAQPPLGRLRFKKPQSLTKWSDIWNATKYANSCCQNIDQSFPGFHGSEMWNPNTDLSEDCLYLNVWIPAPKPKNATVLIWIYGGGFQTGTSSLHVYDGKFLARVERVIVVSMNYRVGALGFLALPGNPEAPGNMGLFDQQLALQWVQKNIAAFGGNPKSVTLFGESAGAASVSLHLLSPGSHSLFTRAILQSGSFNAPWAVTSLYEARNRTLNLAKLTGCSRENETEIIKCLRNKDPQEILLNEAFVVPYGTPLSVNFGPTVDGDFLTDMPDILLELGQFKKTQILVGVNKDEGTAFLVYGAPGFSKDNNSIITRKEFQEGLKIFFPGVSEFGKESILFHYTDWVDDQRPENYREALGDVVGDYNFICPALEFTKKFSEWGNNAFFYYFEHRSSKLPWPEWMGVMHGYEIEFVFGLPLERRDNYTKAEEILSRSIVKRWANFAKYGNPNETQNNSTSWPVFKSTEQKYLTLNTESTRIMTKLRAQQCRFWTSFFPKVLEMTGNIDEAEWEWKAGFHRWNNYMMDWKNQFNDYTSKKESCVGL
T1 sequence (P22303 32-614): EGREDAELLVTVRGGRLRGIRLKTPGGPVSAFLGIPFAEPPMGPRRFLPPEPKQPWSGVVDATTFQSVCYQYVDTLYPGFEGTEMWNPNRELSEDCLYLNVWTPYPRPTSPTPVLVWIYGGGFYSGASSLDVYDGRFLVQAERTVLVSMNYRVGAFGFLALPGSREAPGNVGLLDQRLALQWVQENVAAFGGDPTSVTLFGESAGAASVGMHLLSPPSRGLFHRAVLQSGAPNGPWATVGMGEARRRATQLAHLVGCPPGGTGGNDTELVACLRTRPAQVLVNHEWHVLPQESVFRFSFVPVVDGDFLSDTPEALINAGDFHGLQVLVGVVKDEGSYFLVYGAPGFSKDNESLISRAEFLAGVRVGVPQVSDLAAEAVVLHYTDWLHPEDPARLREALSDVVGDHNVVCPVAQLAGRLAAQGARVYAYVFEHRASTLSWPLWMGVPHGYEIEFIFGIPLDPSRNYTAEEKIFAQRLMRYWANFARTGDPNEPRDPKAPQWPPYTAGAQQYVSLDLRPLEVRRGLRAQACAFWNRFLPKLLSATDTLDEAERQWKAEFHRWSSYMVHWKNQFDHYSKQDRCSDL
Sequence of PAS of Electrophorus electricus AChE (EeAChE) (O42275 24-633): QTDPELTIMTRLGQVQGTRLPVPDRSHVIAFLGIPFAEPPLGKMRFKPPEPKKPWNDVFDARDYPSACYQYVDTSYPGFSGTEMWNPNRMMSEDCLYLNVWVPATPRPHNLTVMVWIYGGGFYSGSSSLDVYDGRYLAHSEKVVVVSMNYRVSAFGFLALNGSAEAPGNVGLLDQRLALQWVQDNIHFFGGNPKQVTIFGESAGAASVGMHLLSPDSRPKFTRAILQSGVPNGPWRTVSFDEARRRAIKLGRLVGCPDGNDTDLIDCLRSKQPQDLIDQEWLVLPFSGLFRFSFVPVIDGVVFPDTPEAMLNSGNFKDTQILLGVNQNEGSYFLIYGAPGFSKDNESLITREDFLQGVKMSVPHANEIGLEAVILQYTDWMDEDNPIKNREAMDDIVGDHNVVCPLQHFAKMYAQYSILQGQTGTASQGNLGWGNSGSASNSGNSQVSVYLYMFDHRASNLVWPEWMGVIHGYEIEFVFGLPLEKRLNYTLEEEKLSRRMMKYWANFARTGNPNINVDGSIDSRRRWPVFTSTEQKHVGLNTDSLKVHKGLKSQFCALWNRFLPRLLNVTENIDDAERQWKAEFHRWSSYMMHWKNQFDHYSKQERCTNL

## O=C(Nc1ccc(OC(F)(F)F)cc1)NC1CCN(C(=O)CCCCNc2c3c(nc4cc(Cl)ccc24)CCCC3)CC1 [12c, 1-{1-{5-[(6-Chloro-1,2,3,4-tetrahydroacridin-9-yl)amino]pentanoyl}piperidin-4-yl}-3-[4-(trifluoromethoxy)phenyl]urea]
[1]
  IC50: 12.9 ± 1.6 nM
[2]
  hBChE potency relative to 6-chlorotacrine: 3 fold
[2]; human serum BChE, mean ± SEM, n.a. = not active, % inhibition <10% at 100 μM, read-out: hBChE IC50
  IC50: 179 ± 90 nM
[3]; propidium iodide staining after 24 h of incubation, mean ± SD
  toxicity to SH-SY5Y cells LD50: >100 µM
[3]; supplementary CSV
  LD50 (SH-SY5Y): > 100 ?M
[4]; 2 h retention
  short-term working memory (NORT discrimination index): significantly ameliorated
[4]; 24 h retention
  long-term working memory (NORT discrimination index): significantly ameliorated
[5]
  IC50: 22.5 nM
[6]
  Kd: 3.95 ± 0.35 µM
[7]; PAMPA-BBB prediction
  BBB permeation class: CNS+ (High permeation, CNS+: Pe > 5.2)
[7]; pig, PAMPA
  Papp: 8.4 ± 0.7 ×10⁻⁶ cm/s
[8]
  solubility at 2 h: 7.5 µM (≈ 4.64 µg/mL)
